Data set [1] concerns conscious dogs. The experiment in a line: Regadenoson-induced changes in hemodynamics (MAP, HR, LVSP, LV dP/dtMax) with and without caffeine in conscious dogs. Type of data set: in vivo, dog. The settings on record: for increase in peak HR from baseline: p<0.05 vs control. The protocol: (§1) Sixteen chronically instrumented male mongrel dogs weighing from 22-30 kg were used in the study. The animal protocol was approved by the Institutional Animal Care and Use Committee of New York Medical College and conforms to the Guide for the Care and Use of Laboratory Animal by the United States National Institutes of Health.
(§2) Dogs were sedated with acepromazine (0.3 mg/kg, IM) and anesthetized with pentobarbital sodium (25 mg/kg, IV). After intubation, dogs were artificially ventilated with room air. A thoracotomy was made in the fifth intercostal space using sterile techniques. A Tygon catheter (Cardiovascular Instruments, Wakefield, Mass.) was inserted into the descending thoracic aorta and another one was inserted into the left atrium. In 9 dogs, an ultrasound flow transducer (Transonic Systems, Ithaca, N.Y.) was placed around the left circumflex coronary artery. A solid-state pressure gauge (P6.5, Konisberg Instruments, Pasadena, Calif.) was placed into the left ventricle through the apex. The chest was closed in layers. The catheters and wires were tunneled subcutaneously and externalized through the skin at the back of the dog's neck. Dogs were allowed to recover from the surgery before experiments were performed, and were trained to lie on a table.
(§3) Phasic arterial pressure was measured by connecting the aortic catheter to a strain gauge transducer (P23 ID, LDS Test and Measurement, Valley View, Ohio). Left ventricular pressures were measured by the solid pressure gauge. CBF (mL/min) was measured from an ultrasound flow transducer using a Transonic flowmeter (T206, Transonic Systems, Ithaca, N.Y.). Two indices were used to describe the Regadenoson-induced coronary vasodilation: 1) the maximum increase in CBF and 2) the duration of the 2-fold increase in CBF (the period of time that CBF was elevated to a level ≧2-fold of baseline CBF). All pressure and flow data were acquired and analyzed using a Ponemah System (Version 3.30 or 4.20, LDS Test and Measurement, Valley View, Ohio). MAP and HR were calculated from phasic blood pressure, and LV dP/dtMax was calculated from the left ventricular systolic pressure.
(§4) On the day of an experiment, a dog was placed on a table, where it lay quietly during the experiment. A catheter was inserted into a peripheral vein in the leg and attached to an infusion line to administer drugs without disturbing the dog. The experiment was begun after MAP, HR and CBF were stable.
(§5) Regadenoson was supplied by CV Therapeutics, Inc. as a sterile stock solution (Lot#: 803604, 0.08 mg/mL), that was made using 15% Propylene Glycol (pH 7) and was diluted in normal saline before injection.
The statistical significance of a difference between the value of a parameter at baseline and at the indicated time point after drug administration was determined using a One-Way Repeated Measures ANOVA followed by Tukey's Test. […] Results with p<0.05 were considered to be significant. A computer-based software package (SigmaStat 2.03) was used for statistical analysis. All data are presented as Mean±SEM.

In data set [2] the test system is normal subjects. The experiment in a line: Safety and tolerability of regadenoson with and without prior caffeine. Type of data set: in vivo, human. As to the method:
(§6) 15O water was used as the radionuclide in the PET scans. There was a 1- to 14-day washout period between dosing days. Blood samples and measures of safety were collected until 120 minutes after study drug administration.
Safety measures included adverse events (AEs), serious adverse events, vital signs (HR and BP), ECG, concomitant medications, and a tolerability questionnaire. All available data from subjects who received the single dose of regadenoson were to be included in the statistical summaries.
ECG intervals and changes from baseline values in ECG intervals were to be presented, as were occurrences of rhythm or conduction abnormalities. Concomitant medication usage was to be summarized.
Tolerability questionnaire responses were to be analyzed using the Wilcoxen rank sum test (“How did you feel?” question) and the exact Cochran-Mantel-Haenszel test (Day 2—only question “How did this test compare to the first test?”).

The subject of data set [3] is normal subjects. The experiment in a line: Crossover PET study of regadenoson-induced myocardial blood flow (coronary flow reserve) with caffeine or placebo. Format: in vivo, human. The protocol:
as §6
Open-label study drug was supplied as sterile stock solution in single-use vials each containing 5 mL of regadenoson (0.08 mg/mL). Regadenoson, 400 μg, was administered as a rapid bolus, through an iv catheter over approximately 10 seconds, followed immediately by a 5 mL saline flush.
On each of 2 study days, subjects received a single dose of regadenoson, administered intravenously as a rapid (10-second) bolus of 5 mL, followed by a 5 mL saline flush. There was a 1- to 14-day washout period between doses.
The CVT tracking number for the placebo capsules was 1341 (Leg 2).
The primary efficacy measure was the log coronary flow reserve (CFR), which is the ratio of stress MBF after regadenoson dosing to the resting MBF.
The data were also to be analyzed using Wilcoxon's rank-sum test.

A short description of data set [4]: Plasma regadenoson concentrations after IV injection in conscious dogs. Conditions: effect of caffeine at 1, 2, 4 or 10 mg/kg. As to the method: Each dog received an IV injection of 5 μg/kg of Regadenoson. […] LVSP, LV dP/dtMax, MAP, HR and CBF were recorded continuously. Blood samples were taken from the left atrial catheter at 1, 3, 5, 15, 30, 45 and 60 min following injections of Regadenoson.

The subject of data set [5] is conscious dogs. The experiment in a line: Regadenoson-induced coronary vasodilation (CBF) with and without caffeine in conscious dogs. Type of data set: in vivo, dog. Conditions: for change of the maximum increase in CBF induced by Regadenoson vs control: p>0.05. The protocol:
as §1, §2, §3, §4
In 4 dogs, two doses of Regadenoson (5 μg/kg, IV) were given 90 min apart (without blood sampling) to determine if there is tachyphylaxis of Regadenoson-induced coronary vasodilation.
as §5
The statistical significance of a difference between the value of a parameter at baseline and at the indicated time point after drug administration was determined using a One-Way Repeated Measures ANOVA followed by Tukey's Test. The statistical significance of a difference between responses to Regadenoson in the absence and presence of caffeine was determined using a Two-Way Repeated Measures ANOVA followed by Tukey's Test. Results with p<0.05 were considered to be significant. A computer-based software package (SigmaStat 2.03) was used for statistical analysis. All data are presented as Mean±SEM.

The mark [6] stands for this setting: after regadenoson 400 μg IV dosing.
Where [7] appears, read: regadenoson 400 μg IV, at any time, 25/43 subjects.
Where [8] appears, read: regadenoson 400 μg IV, caffeine 200 mg po.
Where [9] appears, read: regadenoson 5 μg/kg IV in the presence of caffeine 1 mg/kg.
Setting [10] is: regadenoson 5 μg/kg IV in the presence of caffeine 2 mg/kg.
Setting [11] is: caffeine 200 mg po before regadenoson 400 μg IV.

On to `CNC(=O)c1cnn(-c2nc(N)c3ncn([C@@H]4O[C@H](CO)[C@@H](O)[C@H]4O)c3n2)c1` [Regadenoson, (1-{9-[(4S,2R,3R,5R)-3,4-dihydroxy-5-(hydroxymethyl)oxolan-2-yl]-6-aminopurin-2-yl}pyrazol-4-yl)-N-methylcarboxamide], for which the “decrease in MAP (peak) from baseline” value in the data set on conscious dogs [1] (regadenoson 5 μg/kg IV in the absence of caffeine, baseline 102±2 mm Hg, n=9) amounted to 15±2%. Also, in the data set on conscious dogs [1] (regadenoson 5 μg/kg IV without caffeine, baseline 80±4 beats/min, n=9), the “increase in HR (peak) from baseline” value is 114±14%. In addition, the “decrease in LVSP (peak) from baseline” value with conscious dogs [1] (regadenoson 5 μg/kg IV without caffeine, baseline 139±5 mm Hg, n=8) was 9±1%. For the same molecule, in the data set with conscious dogs [1] (regadenoson 5 μg/kg IV, baseline 3240±196 mm Hg/s), the “increase in LV dP/dtMax (peak) from baseline” value came out at 65±7%. Besides, in the data set on normal subjects [2] (setting [6]), the “QTc prolongation (>500 msec and change of >60 msec) by ECG analysis, not reported as AE” value was “one subject”; the “first degree AV block by ECG analysis, not reported as AE” value is “one subject”. Moreover, the “subjects with sensation of heaviness” value in the data set on normal subjects [2] (regadenoson 400 μg IV) was 28%. In the data set on normal subjects [2] (regadenoson 400 μg IV, 8/43 subjects), this molecule showed a subjects with paraesthesia of 19%. Further, in the data set with normal subjects [2] (regadenoson 400 μg IV, 12/43 subjects), the subjects with headache turned out to be 28%. For the same molecule, the subjects with flushing in the data set on normal subjects [2] (regadenoson 400 μg IV, 13/43 subjects) was found to be 30%. Moreover, in the data set on normal subjects [2] (regadenoson 400 μg IV, 21/43 subjects), the subjects with palpitations is 49%. This molecule also registered a subjects with dyspnoea with normal subjects [2] (regadenoson 400 μg IV, 24/43 subjects) of 56%. Besides, the “subjects with AEs: ear and labyrinth disorders” value in the data set on normal subjects [2] (regadenoson 400 μg IV, at any time, 1/43 subjects) is 2%. Besides, the “subjects with AEs: gastrointestinal disorders” value with normal subjects [2] (regadenoson 400 μg IV, at any time, 2/43 subjects) is given as 5%. The “subjects with AEs: general disorders and administration site conditions” value in the data set with normal subjects [2] (regadenoson 400 μg IV, at any time, 11/43 subjects) came to 26%. In addition, the “subjects with AEs: musculoskeletal and connective tissue disorders” value with normal subjects [2] (regadenoson 400 μg IV, at any time, 12/43 subjects) came out at 28%. For the same molecule, the “subjects with AEs: vascular disorders” value with normal subjects [2] (regadenoson 400 μg IV, at any time, 13/43 subjects) is reported as 30%. Further, the “subjects with AEs: nervous system disorders” value in the data set with normal subjects [2] (regadenoson 400 μg IV, at any time, 18/43 subjects) is 42%. In the data set on normal subjects [2] (setting [7]), the “subjects with AEs: cardiac disorders” value was 58%; the “subjects with AEs: respiratory, thoracic and mediastinal disorders” value was determined as 58%.

As to `Cn1c(=O)c2c(ncn2C)n(C)c1=O` [Caffeine, caffeine], the “change in CFR with caffeine” value with normal subjects [3] (caffeine 200 mg po vs placebo before regadenoson 400 μg IV) is on record as “no change in CFR detected”. Moreover, the “change in CFR (printed: not ≧20%)” value in the data set on normal subjects [3] (caffeine 200 mg po vs placebo before regadenoson 400 μg IV, 95% confidence) is reported as under 20%. Further, the “exponentiated lower limit of the 90% confidence interval for log CFR (caffeine versus placebo difference)” value in the data set with normal subjects [3] (setting [8]) is on record as 0.80. Moreover, in the data set with normal subjects [3] (setting [8]), the “exponentiated lower limit of the 95% confidence interval for log CFR (caffeine versus placebo difference)” value was 0.78. Further, in the data set on normal subjects [3] (setting [8]), the “exponentiated upper limit of the 90% confidence interval for log CFR (caffeine versus placebo difference)” value stood at 1.06. For the same molecule, in the data set with normal subjects [3] (setting [8]), the “exponentiated upper limit of the 95% confidence interval for log CFR (caffeine versus placebo difference)” value worked out at 1.08. Moreover, the “Pharmacokinetic profiles of Regadenoson” value in data set [4] is “not changed”. Also, the “peak decrease in MAP from baseline” value stood at 2±5% in the data set on conscious dogs [1] (regadenoson 5 μg/kg IV in the presence of 4 mg/kg caffeine), 13±2% in the data set on conscious dogs [1] (setting [9]) and 13±1% in the data set with conscious dogs [1] (setting [10]). Besides, in the data set with conscious dogs [1] (regadenoson 5 μg/kg IV in the presence of 4 mg/kg of caffeine, p>0.05), the “decrease in LVSP from control” value is reported as 1±5%. In the data set with conscious dogs [1] (regadenoson 5 μg/kg IV in the presence of 10 mg/cg caffeine, insignificant), the “increase in MAP from baseline” value is listed as 9±6%. In the data set with conscious dogs [1] (regadenoson 5 μg/kg IV in the presence of 10 mg/kg caffeine, significant), the “increase in LVSP from control” value is listed as 11±7%. The results for the “decrease in LVSP from baseline” value in the data set with conscious dogs [1] (setting [9]) and with conscious dogs [1] (setting [10]) were 9±3% and 6±2%, respectively. For the same molecule, the “increase in peak HR from baseline” value with conscious dogs [1] (setting [10]) stood at 109±21%; in the data set on conscious dogs [1] (regadenoson 5 μg/kg IV in the presence of caffeine 4 mg/kg), 79±20%; in the data set on conscious dogs [1] (regadenoson 5 μg/kg IV in the presence of caffeine 10 mg/kg), 74±16%. In addition, the “Baseline values of CBF before and after caffeine treatment” value in the data set on conscious dogs [5] (45 min after 1, 2, 4, and 10 mg/kg caffeine) is “not significantly different”. Besides, the “change of the maximum increase in CBF induced by Regadenoson vs control” value is recorded as 2±3% in the data set with conscious dogs [5] (regadenoson 5 μg/kg IV 45 min after caffeine 1 mg/kg IV), −0.7±3% in the data set on conscious dogs [5] (regadenoson 5 μg/kg IV 45 min after caffeine 2 mg/kg IV), −16±5% in the data set with conscious dogs [5] (regadenoson 5 μg/kg IV 45 min after caffeine 4 mg/kg IV) and −13±8% in the data set with conscious dogs [5] (regadenoson 5 μg/kg IV 45 min after caffeine 10 mg/kg IV). Moreover, in the data set on normal subjects [2] (setting [11]), the “effect of caffeine on the severity of AEs” value is on record as “attenuated”. For the same molecule, the “overall incidence of AEs between the placebo and caffeine groups” value in the data set on normal subjects [2] (setting [11]) is “no difference”. Also, the “effect of caffeine on the HR increase caused by regadenoson” value in the data set on normal subjects [2] (caffeine 200 mg po before regadenoson 400 μg IV, p<0.001) is recorded as “attenuated”. In the data set with normal subjects [2] (caffeine 200 mg po, regadenoson 400 μg IV, p<0.001), the “tolerability questionnaire: feeling after the caffeine test vs after the placebo test” value is reported as “felt better”. For the same molecule, the “tolerability questionnaire: comfort during the test” value with normal subjects [2] (test with caffeine 200 mg po vs placebo, regadenoson 400 μg IV, p<0.001) was “felt more comfortable”.
